Each structure is given as a SMILES string.

One assay deals with DGKζ (Homo sapiens (Human), UniProt Q13574). Kind of assay: Biochemical DGK IC50 assay, DGKζ ADP-Glo assay. Conditions: 0.5 nM enzyme, 140 μM ATP, 80 μM DAG; read-out: DGKζ ADP-Glo assay IC50. An outline of the steps:
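ADP formation measured by ADP-Glo luminescence, with test compounds at final 1.55–10000 nM or 23.3–150000 nM. Enzyme: purified full-length human DGKζ from Sf9 insect cells; substrate: DAG/PS micelles in 25 mM HEPES pH 7.0, 0.5 mM EDTA, octyl glucoside.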
Background: ADP-Glo turns the ADP formed in a reaction into a luminescent signal.

The target in a further assay is DGKα (Homo sapiens (Human), UniProt P23743). Kind of assay: Biochemical DGK IC50 assay, DGKα ADP-Glo assay. Conditions: 7.5 nM enzyme, 140 μM ATP, 80 μM DAG. An outline of the steps: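 Compounds at final 1.55˜10000 nM or 23.3˜150000 nM were tested against full-length DGKα. Substrate was lipid micelles of DAG and PS resuspended in 25 mM HEPES pH 7.0 with 0.5 mM EDTA and 160 mM octyl β-D-glucopyranoside. ADP formed was detected by ADP-Glo.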
DGKα, sequence (P23743 whole entry): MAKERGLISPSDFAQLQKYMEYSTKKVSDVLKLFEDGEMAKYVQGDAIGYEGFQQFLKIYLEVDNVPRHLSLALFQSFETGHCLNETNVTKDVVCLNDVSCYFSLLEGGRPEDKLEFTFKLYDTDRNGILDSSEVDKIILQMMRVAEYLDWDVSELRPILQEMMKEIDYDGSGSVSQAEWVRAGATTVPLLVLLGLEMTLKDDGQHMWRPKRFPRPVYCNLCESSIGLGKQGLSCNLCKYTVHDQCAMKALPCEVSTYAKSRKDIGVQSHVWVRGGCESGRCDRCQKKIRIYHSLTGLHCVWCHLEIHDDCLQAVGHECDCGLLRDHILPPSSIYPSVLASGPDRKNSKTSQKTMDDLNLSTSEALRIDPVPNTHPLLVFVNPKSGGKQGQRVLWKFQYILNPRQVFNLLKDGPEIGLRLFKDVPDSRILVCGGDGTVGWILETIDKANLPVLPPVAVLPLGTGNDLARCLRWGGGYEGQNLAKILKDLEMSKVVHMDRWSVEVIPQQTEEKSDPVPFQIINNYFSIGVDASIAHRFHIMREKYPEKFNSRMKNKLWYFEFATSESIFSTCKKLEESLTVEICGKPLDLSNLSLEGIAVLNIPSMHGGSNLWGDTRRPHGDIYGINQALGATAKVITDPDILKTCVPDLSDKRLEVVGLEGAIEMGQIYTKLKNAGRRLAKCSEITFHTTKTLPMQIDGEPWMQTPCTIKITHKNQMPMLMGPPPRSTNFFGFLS

DGKζ, sequence (Q13574 other isoform, or with tags, fused parts or gaps): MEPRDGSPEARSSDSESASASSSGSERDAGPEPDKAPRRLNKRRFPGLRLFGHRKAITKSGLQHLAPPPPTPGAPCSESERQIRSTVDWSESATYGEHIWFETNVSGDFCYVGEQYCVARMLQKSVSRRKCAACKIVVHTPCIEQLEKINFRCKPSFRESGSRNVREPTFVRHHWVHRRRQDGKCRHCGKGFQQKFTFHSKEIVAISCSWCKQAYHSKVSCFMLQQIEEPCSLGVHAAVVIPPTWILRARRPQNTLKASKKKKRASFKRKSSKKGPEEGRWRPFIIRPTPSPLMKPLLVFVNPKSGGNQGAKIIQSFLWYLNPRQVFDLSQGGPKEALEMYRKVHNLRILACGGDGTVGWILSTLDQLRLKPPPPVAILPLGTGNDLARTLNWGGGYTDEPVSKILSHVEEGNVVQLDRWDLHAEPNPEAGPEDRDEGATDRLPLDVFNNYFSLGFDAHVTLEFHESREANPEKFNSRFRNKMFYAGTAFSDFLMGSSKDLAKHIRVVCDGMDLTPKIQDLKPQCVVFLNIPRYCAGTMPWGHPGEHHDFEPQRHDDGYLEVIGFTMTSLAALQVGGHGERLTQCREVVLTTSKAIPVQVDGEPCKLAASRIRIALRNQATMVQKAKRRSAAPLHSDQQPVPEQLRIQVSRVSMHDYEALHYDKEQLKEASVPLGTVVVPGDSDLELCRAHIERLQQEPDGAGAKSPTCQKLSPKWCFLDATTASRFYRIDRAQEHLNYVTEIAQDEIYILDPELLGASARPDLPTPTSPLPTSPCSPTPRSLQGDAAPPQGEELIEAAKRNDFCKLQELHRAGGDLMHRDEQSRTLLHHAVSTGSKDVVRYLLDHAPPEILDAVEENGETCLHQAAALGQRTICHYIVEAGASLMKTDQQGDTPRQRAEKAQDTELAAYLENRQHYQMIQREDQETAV

`C[C@@H]1CN(c2cc(=O)n(C)c3c(C(F)(F)F)n(CC#N)nc23)[C@@H](C)CN1[C@@H](C)c1ccc2nccnc2c1` (single isomer, unassigned) [Compound A243, 2-(7-((2S,5R)-2,5-dimethyl-4-((S)-1-(quinoxalin-6-yl)ethyl)piperazin-1-yl)-4-methyl-5-oxo-3-(trifluoromethyl)-4,5-dihydro-2H-pyrazolo[4,3-b]pyridin-2-yl)acetonitrile or 2-(7-((2S,5R)-2,5-dimethyl-4-((R)-1-(quinoxalin-6-yl)ethyl)piperazin-1-yl)-4-methyl-5-oxo-3-(trifluoromethyl)-4,5-dihydro-2H-pyrazolo[4,3-b]pyridin-2-yl)acetonitrile]: the IC50 – broadly, the point on the concentration scale where inhibition reaches its midpoint – is 1350 nM on DGKζ and > 10000 nM on DGKα.
`CC[C@H]1CN(C(C)c2ccc3nccnc3c2)[C@H](CC)CN1c1cc(=O)n(CCOC)c2cn(CC#N)nc12` (stereo partly drawn) [Compound A96, 2-(7-((2S,5R)-2,5-diethyl-4-(1-(quinoxalin-6-yl)ethyl)piperazin-1-yl)-4-(2-methoxyethyl)-5-oxo-4,5-dihydro-2H-pyrazolo[4,3-b]pyridin-2-yl)acetonitrile]: the IC50 on DGKζ is 255 nM; against DGKα, > 10000 nM.
For `CC[C@H]1CN(C(C)c2ccc(F)cn2)[C@H](CC)CN1c1cc(=O)n(C)c2cn(CC#N)nc12` (single isomer, unassigned) [Compound A74a] the same measures were 224 nM and 2.2 nM.
For `CC[C@@H]1CN(c2cc(=O)n(C)c3cn(CC#N)nc23)[C@@H](C)CN1C(C)c1ccc2nccnc2c1` (mixture of isomers) [Compound A97, 2-(7-((2S,5R)-5-ethyl-2-methyl-4-(1-(quinoxalin-6-yl)ethyl)piperazin-1-yl)-4-methyl-5-oxo-4,5-dihydro-2H-pyrazolo[4,3-b]pyridin-2-yl)acetonitrile] the same measures were 1 nM and 999 nM.
For `CC[C@H]1CN(C(C)c2ccc(C(F)F)nc2)[C@H](CC)CN1c1cc(=O)n(C)c2cn(CC#N)nc12` (single isomer, unassigned) [Compound A351a] the same measures were 167 nM and 274 nM.
For `CC[C@H]1CN(C(C)c2nc3ccccc3n2C(C)C)[C@H](CC)CN1c1cc(=O)n(C)c2cn(CC#N)nc12` (stereo partly shown) [Compound A193], the IC50 was 5730 nM on DGKζ and > 10000 nM on DGKα.
Turning to `CC[C@H]1CN(C(C)c2ccc3nccnc3c2)[C@H](C)CN1c1cc(=O)n(C)c2cn(CC#N)nc12` (stereo partly drawn) [Compound A98, 2-(7-((2S,5R)-2-ethyl-5-methyl-4-(1-(quinoxalin-6-yl)ethyl)piperazin-1-yl)-4-methyl-5-oxo-4,5-dihydro-2H-pyrazolo[4,3-b]pyridin-2-yl)acetonitrile], the values for the concentration for half-maximal inhibition (IC50) on DGKζ and on DGKα were 410 nM and 27000 nM, respectively.
The corresponding values for `COc1c(N2C[C@@H](C)N([C@@H](C)c3ccc4nccnc4c3)C[C@@H]2C)c2nn(CC#N)cc2n(C)c1=O` [Compound A274, 2-(7-((2S,5R)-2,5-dimethyl-4-((S)-1-(quinoxalin-6-yl)ethyl)piperazin-1-yl)-6-methoxy-4-methyl-5-oxo-4,5-dihydro-2H-pyrazolo[4,3-b]pyridin-2-yl)acetonitrile] are > 10000 nM and > 10000 nM.
For the molecule `CC[C@H]1CN(C(C)c2c(F)cc(F)cc2OC)[C@H](CC)CN1c1cc(=O)n(C)c2cn(CC#N)nc12` (single isomer, unassigned) [Compound A201a], the values for the IC50 at DGKζ and against DGKα were 43 nM and > 10000 nM, respectively.
For `CC[C@H]1CN(C(C)c2cc(C)c(C)cn2)[C@H](CC)CN1c1cc(=O)n(C)c2cn(CC#N)nc12` (stereo partly shown) [Compound A385], the IC50 on DGKζ was 498 nM; on DGKα, 481 nM.
For `CC[C@@H]1CN(c2cc(=O)n(C)c3cn(CC#N)nc23)[C@@H](CC)CN1C(=O)c1ccc(C)cn1` [Compound A370], the IC50 is > 10000 nM on DGKζ and 363 nM against DGKα.
Regarding `CC(c1ccc2nccnc2c1)N1C[C@H](C)N(c2nc(=O)n(C)c3cn(CC#N)nc23)C[C@H]1C` (single isomer, unassigned) [Compound A220, 2-(7-((2S,5R)-2,5-dimethyl-4-((S)-1-(quinoxalin-6-yl)ethyl)piperazin-1-yl)-4-methyl-5-oxo-4,5-dihydro-2H-pyrazolo[4,3-d]pyrimidin-2-yl)acetonitrile, or 2-(7-((2S,5R)-2,5-dimethyl-4-((R)-1-(quinoxalin-6-yl)ethyl)piperazin-1-yl)-4-methyl-5-oxo-4,5-dihydro-2H-pyrazolo[4,3-d]pyrimidin-2-yl)acetonitrile], the IC50 at DGKζ is 67 nM; at DGKα it was 8690 nM.
For `[2H]C([2H])([2H])c1cnc2ccc(C(C)N3C[C@H](C)N(c4cc(=O)n(C)c5cn(CC#N)nc45)C[C@H]3C)cc2n1` (single isomer, unassigned) [Compound A313b] the same measures were 51 nM and 61600 nM.
`CC[C@H]1CN(C(C)c2ccc(C(F)(F)F)cn2)[C@H](CC)CN1c1cc(=O)n(C)c2cn(CC#N)nc12` (single isomer, unassigned) [Compound A348a]: the IC50 on DGKζ was determined as 3880 nM; against DGKα, 177 nM.
Turning to `CC[C@H]1CN(C(C)c2ccc(F)cc2C(F)(F)F)[C@H](CC)CN1c1cc(=O)n(C)c2cn(CC#N)nc12` (single isomer, unassigned) [Compound A196b], the IC50 worked out at 38 nM on DGKζ and 93200 nM at DGKα.
On to `CC(c1ccccc1)N1C[C@H](C)N(c2cc(=O)n(C)c3cn(CC#N)nc23)C[C@H]1C` (stereo partly shown) [Compound A37], for which the IC50 on DGKζ is 5400 nM; against DGKα it was 140 nM.
The corresponding values for `CC[C@H]1CN(C(C)c2ccccc2)[C@H](CC)CN1c1cc(=O)n(C)c2cn(CC#N)nc12` (stereo partly shown) [Compound A89] are 296 nM and 4.3 nM.
With `CC[C@H]1CN(C(C)c2ccc3c(n2)OCCO3)[C@H](CC)CN1c1cc(=O)n(C)c2cn(CC#N)nc12` (stereo partly drawn) [Compound A159, 2-(7-((2S,5R)-4-(1-(2,3-dihydro-[1,4]dioxino[2,3-b]pyridin-6-yl)ethyl)-2,5-diethylpiperazin-1-yl)-4-methyl-5-oxo-4,5-dihydro-2H-pyrazolo[4,3-b]pyridin-2-yl)acetonitrile], the IC50 at DGKζ turned out to be 30 nM; at DGKα, 190 nM.
For the molecule `CC[C@@H]1CN(c2nc(=O)[nH]c3cn(CC#N)nc23)[C@@H](C)CN1C(C)c1ccc2nccnc2c1` (single isomer, unassigned) [Compound A183a], the IC50 on DGKζ came to 110 nM; on DGKα, 7740 nM.
The corresponding values for `CC[C@H]1CN(C(C)c2ccc(C)nc2)[C@H](CC)CN1c1cc(=O)n(C)c2cn(CC#N)nc12` (single isomer, unassigned) [Compound A349a] are 462 nM and 490 nM.
For `C=CCCn1cc2c(n1)c(N1C[C@@H](C)N(C(C)c3ccc4nccnc4c3)C[C@@H]1C)cc(=O)n2C` (single isomer, unassigned) [Compound A300, 2-(but-3-en-1-yl)-7-((2S,5R)-2,5-dimethyl-4-((S)-1-(quinoxalin-6-yl)ethyl)piperazin-1-yl)-4-methyl-2,4-dihydro-5H-pyrazolo[4,3-b]pyridin-5-one, or 2-(but-3-en-1-yl)-7-((2S,5R)-2,5-dimethyl-4-((R)-1-(quinoxalin-6-yl)ethyl)piperazin-1-yl)-4-methyl-2,4-dihydro-5H-pyrazolo[4,3-b]pyridin-5-one], the IC50 was 524 nM at DGKζ and 54000 nM on DGKα.
Turning to `CC(c1ccc2nc(O)cnc2c1)N1C[C@H](C)N(c2cc(=O)n(C)c3cn(CC#N)nc23)C[C@H]1C` (stereo partly drawn) [Compound A284, 2-(7-((2S,5R)-4-(1-(2-hydroxyquinoxalin-6-yl)ethyl)-2,5-dimethylpiperazin-1-yl)-4-methyl-5-oxo-4,5-dihydro-2H-pyrazolo[4,3-b]pyridin-2-yl)acetonitrile], the values for the IC50 at DGKζ and on DGKα were > 10000 nM and 6480 nM, respectively.
`Cc1cnc2cc([C@H](C)N3C[C@H](C)N(c4cc(=O)n(C)c5cn(CC#N)nc45)C[C@H]3C)ccc2n1` (single isomer, unassigned) [Compound A269b, 2-(7-((2S,5R)-2,5-dimethyl-4-((S)-1-(2-methylquinoxalin-6-yl)ethyl)piperazin-1-yl)-4-methyl-5-oxo-4,5-dihydro-2H-pyrazolo[4,3-b]pyridin-2-yl)acetonitrile, or 2-(7-((2S,5R)-2,5-dimethyl-4-((R)-1-(2-methylquinoxalin-6-yl)ethyl)piperazin-1-yl)-4-methyl-5-oxo-4,5-dihydro-2H-pyrazolo[4,3-b]pyridin-2-yl)acetonitrile]: the IC50 on DGKζ was 6850 nM; on DGKα, > 10000 nM.
As for `CC[C@H]1CN(C(C)c2ccc3cnccc3c2)[C@H](CC)CN1c1cc(=O)n(C)c2cn(CC#N)nc12` (stereo partly shown) [Compound A48], the IC50 at DGKζ is 73 nM; at DGKα it was 75 nM.
The corresponding values for `C=C(C)n1cc2c(n1)c(N1C[C@@H](CC)N(C(C)c3ccc4nccnc4c3)C[C@@H]1CC)cc(=O)n2C` (stereo partly drawn) [Compound A25, 7-((2S,5R)-2,5-diethyl-4-(1-(quinoxalin-6-yl)ethyl)piperazin-1-yl)-4-methyl-2-(prop-1-en-2-yl)-2,4-dihydro-5H-pyrazolo[4,3-b]pyridin-5-one] are 510 nM and 54 nM.
For `CC[C@@H]1CN(c2cc(=O)n(C)c3cn(CC#N)nc23)[C@@H]([C@@H](C)O)CN1C(C)c1ccc2nccnc2c1` (stereo partly drawn) [Compound A259, 2-(7-((2R,5R)-5-ethyl-2-((R)-1-hydroxyethyl)-4-(1-(quinoxalin-6-yl)ethyl)piperazin-1-yl)-4-methyl-5-oxo-4,5-dihydro-2H-pyrazolo[4,3-b]pyridin-2-yl)acetonitrile] the same measures were 380 nM and > 10000 nM.
